Results taken from publication PMC11123956, “Nobiletin Stimulates Adrenal Hormones and Modulates the Circadian Clock in Mice” (Nutrients, 2024).

Legend:
[1] = target: T1, PDE5A (Homo sapiens, UniProt O76074); experiment: PDE enzyme  assay, PDE5A; format: biochemical
T1 construct: purchased Eurofins Panlabs Discovery Services Taiwan, Ltd. (contract assay); host or cells: insect Sf9 cells
Description: Enzyme assays for various subtypes of PDE (Table 1 and Figure 4) were conducted by Eurofins Panlabs Discovery Services Taiwan, Ltd. (New Taipei City, Taiwan). In the assays, five or six concentrations of nobiletin over five or six orders of magnitude were examined in experiments conducted in duplicate to determine the IC50 (concentration of nobiletin exerting half-maximal inhibition of control-specific activity). IC50 values were determined by nonlinear least squares regression analysis using MathIQTM (ID Business Solutions Ltd., Woking, UK). FAM-cAMP, FAM-cGMP (0.1 μM), and 100 μM [^3H]cGMP + cGMP were used for the substrate in the human recombinant insect Sf9 cells or Bovine retinal rod outer segments depending on the PDE subtype. The spectrofluorometric quantitation of fluorescein-AMP-IMAP, fluorescein-GMP-IMAP, or [^3H] guanosine was used depending on the PDE subtype. A known […] of each PDE was used as the positive control.

[2] = test system: serum adrenaline; experiment: Serum adrenaline ELISA after i.p. injection; format: in vivo, mice; conditions: intraperitoneal injection, 100 mg/kg
Description: Male C57BL/6J mice (7 weeks old) were purchased from Charles River Japan (Kanagawa, Japan) and used for the serum hormone assay and RT-PCR. Male ICR mice were purchased from Tokyo Laboratory Animals Science Co., Ltd. (Tokyo, Japan), and female PERIOD2::LUCIFERASE (PER2::LUC) knock-in mice (ICR background) bred at Waseda University were used for blood glucose measurements and in vivo imaging assays, respectively. The mice were all housed under conditions of controlled temperature (23 °C ± 3 °C), humidity (50% ± 20%), and lighting (lights on from 07:00 to 19:00 at Taisho Pharmaceutical Co., Ltd. or from 08:00 to 20:00 at Waseda University). In the 24 h cycle, Zeitgeber time 0 (ZT0) was designated as the time when the lights were turned on, and ZT12 was designated as the time when the lights were turned off. […]
Serum corticosterone, adrenaline, and adreno-corticotropic hormone (ACTH) levels, and corticotropin releasing factor (CRF) in the hypothalamus, were measured using enzyme-linked immunosorbent assay (ELISA). […] Blood glucose levels were measured using a Glucose PILOT kit (Aventir Biotech, LLC, Carlsbad, CA, USA). The range of blood glucose that could be precisely measured with the kit was 20–600 mg/dL. […]

With `COc1ccc(-c2cc(=O)c3c(OC)c(OC)c(OC)c(OC)c3o2)cc1OC` [nobiletin] the IC50 [1] was 14.8 µM and the adrenaline secretion [2] was “significantly and potently stimulated”.
